Measurements taken from patent US8440810B2, “Riboswitches, methods for their use, and compositions for use with riboswitches” (Yale University, priority 2002, dated 2013).
“Also recorded” adds a separate entry of the source. Like-named read-outs stand apart in the source and are kept apart here.

Tests used:
[1] = target: 179 lysC RNA; test: In-line probing of 179 lysC RNA; conditions: read-out: apparent KD; half-maximal structural modulation
[2] = system: lysC 5′-UTR template; test: In vitro transcription termination assay, lysC 5′-UTR; conditions: 10 mM ligand, E. coli RNA polymerase, single-round
[3] = target: RNA construct encompassing nucleotides 1 through 315 of the lysC 5′-UTR; conditions: read-out: apparent KD; aptamer plus expression platform
[4] = target: 179 lysC RNA; format: binding, B. subtilis
[5] = system: lysC 5′-UTR fused to lacZ reporter gene; format: cell-based, B. subtilis; conditions: wild-type construct, minimal medium plus 1 mM compound
[6] = target: ribD RNA; test: In-line probing of ribD RNA (RFN element); format: binding, B. subtilis; conditions: read-out: apparent KD
Description: To assess whether the RFN element of ribD was responsive to FMN, a fragment of the corresponding 5′-UTR was 5′-^32P labeled and incubated in the absence and presence of FMN, and the resulting fragments were analyzed by polyacrylamide gel electrophoresis (PAGE). […] To obtain values for apparent dissociation constant (apparent KD) for FMN, in-line probing assays were repeated with trace amounts of ribD RNA and increasing concentrations of FMN; the ligand concentration that correlates with half-maximal modulation of RNA structure should reflect the apparent KD.

[7] = system: ribD leader region; test: In vitro transcription of ribD leader region; format: biochemical; conditions: T7 or B. subtilis RNA polymerase, no additional protein factors
[8] = target: 240 thiC RNA; test: In-line probing of 240 thiC RNA; format: binding, E. coli; conditions: Example 2, FIG. 7A; read-out: apparent KD
Description: Some RNAs were subjected to no reaction, partial digestion with alkali, or partial digestion with RNase T1 (G-specific cleavage) (see FIG. 6a). Composite plots of the fraction of RNA cleaved at specific sites versus the logarithm of the concentration of ligand (e.g. FIG. 7a) were generated to provide an estimate of the apparent KD. Fraction cleaved values were normalized relative to the highest and lowest cleavage values measured for each site. […] Reactions were conducted and analyzed as described in above for FIG. 6A. […] The truncated RNA 111 thiC is boxed. Nucleotides enclosed in boxes identify an alternative pairing.

[9] = system: 91 thiM RNA; format: binding, E. coli
Text: (§1) Specifically, TPP-dependent modulation of the spontaneous cleavage of RNA constructs was visualized by polyacrylamide gel electrophoresis (PAGE). […] Some RNAs were subjected to no reaction, partial digestion with alkali, or partial digestion with RNase T1 (G-specific cleavage) (see FIG. 6a). Composite plots of the fraction of RNA cleaved at specific sites versus the logarithm of the concentration of ligand (e.g. FIG. 7a) were generated to provide an estimate of the apparent KD. Fraction cleaved values were normalized relative to the highest and lowest cleavage values measured for each site.
ii. The thiM and thiC mRNA Leaders Serve as High-Affinity Metabolite Receptors. […] Arrows reflect the estimated concentration of TPP needed to attain half maximal modulation of RNA (apparent KD). […] The boxed data was generated using TPP with the truncated RNAs 91 thiM and 111 thiC. […] Details for the RNA probing analysis are similar to those described above in connection with FIG. 6A. The graphs were generated by ImageQuant software.

[10] = target: TPP-binding domain of A. thaliana (128-nucleotide RNA); test: In-line probing of Arabidopsis TPP-binding domain; parameters: species or system Arabidopsis thaliana; conditions: read-out: apparent dissociation constant (KD)
[11] = system: 165 thiM RNA; format: binding, E. coli; conditions: for Kd: read-out: apparent KD
Text: as §1
NR, ^−OH and T1 represent RNAs subjected to no reaction, partial digestion with alkali, or partial digestion with RNase Tl (G-specific cleavage), respectively. Product bands representing cleavage after selected G residues are numbered and identified by filled arrowheads. The asterisk identifies modulation of RNA structure involving the Shine-Dalgarno (SD) sequence. Gel separations were analyzed using a phosphorimager (Molecular Dynamics) and quantitated using ImageQuant software.

[12] = target: purine-binding aptamer from a pool of random-sequence RNAs; conditions: cited from earlier work
[13] = system: xpt-pbuX 5′-UTR fused to β-galactosidase reporter gene; test: xpt-lacZ β-galactosidase reporter expression; format: cell-based, B. subtilis; conditions: wild-type xpt construct
[14] = system: purE RNA; test: In-line probing of purE RNA; format: binding, B. subtilis; conditions: 1 μM ligand
[15] = system: wild-type ydhL riboswitch fused to β-galactosidase reporter gene; test: ydhL-lacZ β-galactosidase reporter expression; format: cell-based, B. subtilis
[16] = system: xpt riboswitch variant with the C to U mutation at position 74, reporter construct; format: cell-based, B. subtilis
[17] = target: 201 xpt RNA; test: In-line probing of 201 xpt RNA; conditions: read-out: apparent KD; limit of detection of the assay
[18] = system: 80 ydhL RNA; test: In-line probing of 80 ydhL RNA; format: binding, B. subtilis
[19] = system: 93 xpt RNA; test: In-line probing of 93 xpt RNA; format: binding, B. subtilis
[20] = system: 93 xpt RNA; test: Equilibrium dialysis with 93 xpt RNA; format: binding, B. subtilis
[21] = system: btuB leader-lacZ fusion; test: btuB-lacZ expression assay; format: cell-based, E. coli; conditions: wild-type btuB leader
[22] = system: 202-nucleotide mRNA leader (btuB); test: Equilibrium dialysis with btuB mRNA leader
[23] = target: 202-nucleotide leader sequence of the btuB mRNA; format: binding, Escherichia coli; conditions: half-maximal structural modulation, 25° C., 20 mM MgCl2, pH 8.3; read-out: apparent KD
Description: Precursor mRNA leader molecules were prepared by in vitro transcription from templates generated by PCR (see In vivo Expression Constructs and Assays section below) and 5′ ^32p-labeled using methods described previously (Soukup and Breaker, Allosteric nucleic acid catalysts. Curr. Opin. Struct. Biol. 10, […] (2000)). Approximately 20 nM of labeled RNA precursor was incubated as described in the brief description of FIG. 1. Accompanying digestions were carried out using reaction conditions similar to those described previously (Soukup and Breaker, Relationship between internucleotide linkage geometry and the stability of […]. RNA 5, 1308-1325 (1999)). […]
Metabolite-dependent conformational changes in the 202-nucleotide leader sequence of the btuB mRNA. […] The image was generated using a phosphorimager (Molecular Dynamics), and cleavage yields were quantitated by using ImageQuant software. […]
The btuB mRNA leader forms a saturable binding site for AdoCbl. […] 5′-^32P-labeled mRNA leader molecules were incubated, separated, and analyzed as described in the in the legend to FIG. 1A, and include identical control and marker lanes as indicated. […] Fraction cleaved values were normalized relative to the highest and lowest cleavage values measured for each location, including the values obtained upon incubation in the absence of AdoCbl. […]

[24] = target: btuB mRNA leader mutants m4 and m5; format: binding, Escherichia coli; conditions: mutants m4 and m5 (possible P4/P9 pseudoknot)
[25] = target: 124 yitJ RNA; test: In-line probing of 124 yitJ RNA; format: binding, B. subtilis; conditions: minimized aptamer domain
[26] = target: 251 yitJ RNA; format: binding, B. subtilis
[27] = system: metI leader construct; format: biochemical, B. subtilis
[28] = system: aptamer domain from B. subtilis cysH; format: binding
[29] = system: yitJ, yoaD and metK leader constructs; test: In vitro transcription termination with T7 RNA polymerase, yitJ, yoaD and metK leaders; conditions: 50 μM

NCCCC[C@H](N)C(=O)O [L-lysine]
Kd [1]: ~1 µM
terminated product relative to total transcription yield [2]: ~76%
Kd [3]: ~500 µM
Kd ([4]; 1 μM RNA, 3H-lysine 50 nM to 2.5 μM, read-out: apparent KD (Scatchard plot)): ~1 µM
fraction of tritiated L-lysine in chamber b ([4]; 10 μM 179 lysC in chamber b, 50 nM 3H-lysine, 10 hr): ~0.8
restoration of equal tritium distribution by unlabeled competitor ([4]; 50 μM unlabeled compound, additional 10 hr): symmetric distribution of tritium is restored
repression of β-galactosidase reporter expression [5]: exhibits ligand-dependent modulation

Cc1cc2nc3c(=O)[nH]c(=O)nc-3n(C[C@H](O)[C@H](O)[C@H](O)COP(=O)(O)O)c2cc1C [FMN, flavin mononucleotide]
Kd [6]: ~0.005 µM
transcription termination at the intrinsic terminator [7]: specifically induced by FMN

Cc1ncc(C[n+]2csc(CCO[P@](=O)(O)OP(=O)(O)O)c2C)c(N)n1 [TPP, thiamine pyrophosphate]
Kd [8]: 0.1 µM
improvement of apparent KD compared to the longer construct (165 thiM) [9]: approximately 20 fold
Kd [10]: ~0.05 µM
structure modulation ([11]; 40 μM each compound): induce modulation
Kd ([11]; Example 2, FIG. 7A): 0.6 µM
Kd ([11]; thiM RNA as reported in Example 3 (FIG. 13)): 0.5 µM

Nc1nc2nc[nH]c2c(=O)[nH]1 [guanine]
Kd [12]: 1.3 µM
repression of β-galactosidase reporter expression [13]: repressed by guanine; also recorded: causes repression of β-galactosidase expression
allosteric response [14]: responds allosterically to guanine
β-galactosidase activity [15]: very low β-galactosidase activity
regulation of reporter expression [16]: loss of regulation upon addition of guanine
Kd [17]: ≤ 0.005 µM
binding / structural modulation [18]: remains unchanged
modulation of spontaneous cleavage pattern ([19]; 1 μM (adenine as much as 1 mM), 93 xpt and 201 xpt): undergo significant alteration
Kd ([19]; wild-type xpt RNA, Example 8 (FIG. 39a), read-out: apparent KD): ≤ 0.005 µM
tritiated guanine co-localized with RNA ([20]; 100 nM 3H-guanine, 300 nM RNA): greater than 90%
redistribution of 3H-guanine by excess unlabeled competitor ([20]; 500 nM analog): redistributes
shift of distribution of tritiated ligand by RNA ([20]; Example 8: 100 nM tritiated ligand, 3 μM RNA): able to shift the distribution of tritiated guanine

C/C1=C2/[N-]C([C@H](CC(N)=O)[C@@]2(C)CCC(=O)NC[C@@H](C)OP(=O)([O-])O[C@H]2[C@@H](O)[C@@H](n3cnc4cc(C)c(C)cc43)O[C@@H]2CO)[C@]2(C)N=C(/C(C)=C3N=C(/C=C4N=C1[C@@H](CCC(N)=O)C\4(C)C)[C@@H](CCC(N)=O)[C@]\3(C)CC(N)=O)[C@@H](CCC(N)=O)[C@]2(C)CC(N)=O.[CH2-][C@H]1O[C@@H](n2cnc3c(N)ncnc32)[C@@H](O)[C@@H]1O.[Co+3] [AdoCbl, 5′-deoxy-5′-adenosylcobalamin]
regulatory effector function on reporter gene inside cells [21]: down regulation of a reporter gene
restoration of equal tritium distribution by excess unlabeled compound ([22]; 5,000 pmoles unlabeled compound added to chamber b): restores equal distribution of tritium
cpm ratio (chamber b relative to a) ([22]; 3H-AdoCbl, mRNA leader in chamber b): ~2
Kd [23]: ~0.3 µM
Kd [24]: ~5 µM

C[S+](CC[C@H](N)C(=O)O)C[C@H]1O[C@@H](n2cnc3c(N)ncnc32)[C@H](O)[C@@H]1O (some centres unmarked) [SAM, S-adenosylmethionine]
Kd [25]: ~0.004 µM
Kd [26]: ~0.2 µM
termination product ([27]; 50 μM effector, wild-type metI): ~75%
additional yield in transcription termination ([27]; mutant Mabc (six mutations)): ~20%
affinity poorer than that of yitJ [28]: more than 2 orders of magnitude
transcription termination [29]: modest transcription termination
